In patent publication US20210299079A1, “MONOMETHYL FUMARATE-CARRIER CONJUGATES AND METHODS OF THEIR USE” (Flagship Pioneering Innovations V, Inc., priority 2018, published 2021):

Experiments:
[1] = test system: experimental autoimmune encephalomyelitis (EAE); test: In Vivo EAE Model of Multiple Sclerosis; parameters: species or system C57BL/6J mice
Protocol: For experimental autoimmune encephalomyelitis (EAE) study, 8- to 11-week-old C57BL/6J mice were anesthetized and subcutaneously injected with […] and […]. Pertussis toxin (200 ng/mouse) was applied i.p. on days 0. Daily clinical evaluation was performed via a 5-point scale, and the clinical progression was observed over 28 days (FIG. 2A). […] At the end of the study, flow cytometry analysis was performed on the spleen (n=8 per group). […] Statistical analysis was performed with GraphPad Prism (GraphPad Software). Unpaired t test was used to assess significance between the control (Vehicle) and each treatment group. For experimental autoimmune encephalomyelitis (EAE) studies, 8- to 11-week old C57BL/6J mice were anesthetized and subcutaneously injected with […] and […]. Pertussis toxin (200 ng/mouse) was applied intraperitoneally on day 0. Daily clinical evaluation as performed using a 5-point scale and the clinical progression was observed over 28 days (FIGS. 2C and 2D).

MIP-1β = test: Neutrophil Chemokine Production Assay: MIP-1β; format: cell-based; settings: human neutrophils, 12 h
In short: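 Neutrophils were isolated from human blood by Histopaque-1077 separation and RBC lysis, then plated at 2.0×10^5 cells/well in RPMI complete. Cells were stimulated with LPS (10 μL of a 2 μg/mL solution) for 12 h at 37 °C. Supernatant chemokines were measured by Luminex multiplex, averaging three data points from two donors.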

AhR = target: T1, AhR (Homo sapiens, UniProt P35869); test: AhR Activation in Caco-2 Cells Through CYP1A1 mRNA Expression; settings: overnight
T1 sequence (P35869 11-848): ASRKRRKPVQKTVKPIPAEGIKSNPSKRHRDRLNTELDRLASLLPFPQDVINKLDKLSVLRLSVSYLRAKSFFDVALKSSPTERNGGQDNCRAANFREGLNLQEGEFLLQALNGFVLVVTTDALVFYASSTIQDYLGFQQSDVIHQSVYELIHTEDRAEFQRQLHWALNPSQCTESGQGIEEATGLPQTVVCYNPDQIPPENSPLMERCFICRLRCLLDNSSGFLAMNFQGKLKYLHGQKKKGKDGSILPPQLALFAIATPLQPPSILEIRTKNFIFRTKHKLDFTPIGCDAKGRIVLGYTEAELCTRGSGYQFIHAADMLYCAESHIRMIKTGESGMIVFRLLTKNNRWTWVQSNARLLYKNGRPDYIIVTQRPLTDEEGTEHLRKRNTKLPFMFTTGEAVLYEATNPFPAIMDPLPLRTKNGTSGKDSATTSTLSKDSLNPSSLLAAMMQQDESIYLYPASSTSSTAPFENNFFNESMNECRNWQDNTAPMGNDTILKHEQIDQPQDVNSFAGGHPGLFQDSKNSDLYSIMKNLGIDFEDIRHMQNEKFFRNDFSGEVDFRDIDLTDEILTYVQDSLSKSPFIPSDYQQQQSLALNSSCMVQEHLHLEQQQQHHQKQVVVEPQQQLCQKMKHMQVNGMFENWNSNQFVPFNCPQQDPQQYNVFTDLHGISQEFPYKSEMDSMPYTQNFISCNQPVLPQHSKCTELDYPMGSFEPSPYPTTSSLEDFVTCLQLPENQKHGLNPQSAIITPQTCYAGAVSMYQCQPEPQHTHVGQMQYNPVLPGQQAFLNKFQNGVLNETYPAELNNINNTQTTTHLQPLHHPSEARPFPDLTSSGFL
Protocol: Caco-2 cells from American Type Culture Collection (ATCC) were plated in a sterile tissue culture treated 96-well plate (ThermoFisher) at 8.0×10^5 cells per well, and grown overnight at 37° C., 5% CO2 in DMEM complete (Gibco) in order to achieve confluence. After the incubation medium was aspirated off of the Caco-2 monolayers, tissues were then washed with 200 μL of warmed PBS solution, and subsequently 190 μL of pre-warmed growth medium was added to each well. Compounds of interest were diluted at a 20× concentration in growth medium containing 2% DMSO, and 10 μL of compound solutions were added to respective wells in triplicate. Compounds where incubated overnight at 37° C., 5% CO2. 2-(1′H-indole-3′-carbonyl)-thiazole-4-carboxylic acid methyl ester (ITE) was used as the positive control for AhR activation at 1 and 100 μM concentrations. At the end of the incubation, medium was aspirated off of the Caco-2 cells, and washed with 100 μL of cold PBS solution. RNA was extracted via the TaqMan™ Gene Expression Cells-to-CT™ Kit (ThermoFisher) according to the manufacturer's protocol. The QuantStudio 6 Flex (Applied Biosciences) was used to analyze mRNA levels of CYP1A1 using GAPDH as the endogenous control. TaqMan™ probe sets for both genes were acquired from ThermoFisher. Samples were run in triplicate and data was analyzed using the QuantStudio software and reported as linear (Table 6) and log 2(ΔΔCT) values. Statistical analysis was performed using a two-tailed t-test comparing CYP1A1 levels in the presence of each individual compound to the vehicle negative control.

SMILES: CCC(=O)O [propionate]
- EAE score (5-point scale) compared to control (vehicle only) ([1]; Study 1, 200 mM in drinking water, 28 days): lower EAE scores
- TH17 cell (CD3+)/regulatory T cells (CD3+, Foxp3+) ratio ([1]; Study 1, spleen flow cytometry at end of study, 200 mM in drinking water, vs vehicle, P<0.05): significantly reduced
- % MIP-1β (DMSO + LPS = 100%) (MIP-1β; Conc. 500.0 μM): +++ (+++ = <50% Vehicle)
- % MIP-1β (DMSO + LPS = 100%) (MIP-1β; Conc. 1000.0 μM): +++ (+++ = <50% Vehicle)
- % MIP-1β (DMSO + LPS = 100%) (MIP-1β; Conc. 3000.0 μM): +++ (+++ = <50% Vehicle)
- Average CYP1A1 mRNA levels (AhR; Conc. 1000.0 μM): − (− = <2-fold Vehicle)
- Average CYP1A1 mRNA levels (AhR; Conc. 3000.0 μM): − (− = <2-fold Vehicle)
